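Assay format: 96-well plates, 48-hour exposure. Abbreviation: GI50, concentration required for 50% inhibition of growth.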 Activity calls are given as the source filed them. Rule as the data show it: active = GI50 up to about 1.1 µM and inactive = higher. Starred links: 1 amine or outer side, 2 acyl side, 3 side chain; linkers in the order of their positions; H or OH if unused. Non-standard residues stand in square brackets, D forms with d. Residues, ends and D or L forms follow the SMILES beside them. X41 = CSCCCC(N[*:1])C(=O)[*:2]
Columns and labels:
Assay in all cases: NCI anticancer screen, dose series, 48 h
COLO 205 = tested on: COLO 205
OVCAR-5 = tested on: OVCAR-5
PC-3 = tested on: PC-3
UACC-257 = tested on: UACC-257
SW-620 = tested on: SW-620
OVCAR-8 = tested on: OVCAR-8
HCT-15 = tested on: HCT-15
SF-268 = tested on: SF-268
K562 = tested on: K562
NCI/ADR-RES = tested on: NCI/ADR-RES
DU-145 = tested on: DU-145
SR = tested on: SR
M14 = tested on: M14
SK-MEL-28 = tested on: SK-MEL-28
786-0 = tested on: 786-0
SF-295 = tested on: SF-295
SK-MEL-5 = tested on: SK-MEL-5
SK-MEL-2 = tested on: SK-MEL-2

Measured: GI50

CC(C)(C)Cc1cc(O)ccc1O
34.7 µM: HCT-15
inactive: COLO 205 > 100 µM | OVCAR-5 > 100 µM | PC-3 > 100 µM | UACC-257 33.3 µM | SW-620 61.9 µM | OVCAR-8 53 µM | SF-268 87.9 µM | K562 48.3 µM | NCI/ADR-RES 35.6 µM | DU-145 > 100 µM | SR 24 µM | M14 46.2 µM | SK-MEL-28 > 100 µM | 786-0 63.5 µM | SF-295 44 µM

CCCCCC(C)C[C@H]1CO[C@H](c2ccc[nH]2)N[C@H]1C(=O)OC (stereo partly drawn)
inactive: COLO 205 > 100 µM | OVCAR-5 > 100 µM | PC-3 > 100 µM | UACC-257 > 100 µM | SW-620 > 100 µM | OVCAR-8 > 100 µM | SF-268 > 100 µM | NCI/ADR-RES > 100 µM | DU-145 > 100 µM | M14 > 100 µM | SK-MEL-28 > 100 µM | 786-0 > 100 µM | SK-MEL-5 > 100 µM | SK-MEL-2 > 100 µM | SF-295 > 100 µM
> 100 µM: HCT-15

CC1=CCS(=O)(=O)C1C(O)C1=C(C)CCCC1(C)C (stereo not drawn)
inactive: COLO 205 60.1 µM | OVCAR-5 > 100 µM | PC-3 55.5 µM | UACC-257 58.9 µM | SW-620 > 100 µM | OVCAR-8 > 100 µM | K562 43.1 µM | NCI/ADR-RES 78.7 µM | DU-145 > 100 µM | M14 69.2 µM | SK-MEL-28 > 100 µM | 786-0 > 100 µM | SK-MEL-5 44.4 µM | SK-MEL-2 > 100 µM | SF-295 22.2 µM
> 100 µM: HCT-15

C[C@]12CC[C@H]3[C@@H](CC=C4C[C@@H](N5CCCC5)CC[C@@]43C)[C@@H]1C/C(=C\c1ccc([N+](=O)[O-])cc1)[C@@H]2O
inactive: COLO 205 16.6 µM | PC-3 24.3 µM | UACC-257 16.4 µM | SW-620 17.9 µM | SF-268 17.5 µM | NCI/ADR-RES 17.7 µM | DU-145 17.3 µM | SR 1.88 µM | M14 16.6 µM | SK-MEL-28 14.1 µM | 786-0 5.77 µM | SK-MEL-5 15 µM | SK-MEL-2 > 10 µM | SF-295 24.9 µM
13.8 µM: HCT-15

COC(=O)C1=C2SCc3cccc(c3)CSC3=C(C(=O)OC)SC(=C(S2)S1)S3
inactive: COLO 205 > 100 µM | PC-3 35.5 µM | UACC-257 > 100 µM | SW-620 > 100 µM | K562 > 100 µM | DU-145 > 100 µM | M14 82.6 µM | SK-MEL-28 > 100 µM | 786-0 > 100 µM | SK-MEL-5 > 100 µM | SK-MEL-2 32.7 µM | SF-295 > 100 µM

CC1Cn2c(nc3ccccc32)NC1=O (stereo not drawn)
inactive: COLO 205 > 100 µM | OVCAR-5 > 100 µM | PC-3 > 100 µM | UACC-257 > 100 µM | SW-620 > 100 µM | OVCAR-8 > 100 µM | SF-268 > 100 µM | K562 > 100 µM | NCI/ADR-RES > 100 µM | SR > 100 µM | M14 > 100 µM | 786-0 > 100 µM | SK-MEL-5 > 100 µM | SK-MEL-2 > 100 µM | SF-295 > 100 µM
> 100 µM: HCT-15

O=C(Cn1c(=O)ccn(C2OC(CO)C(O)C2F)c1=O)c1ccc(F)cc1 (stereo not drawn)
> 100 µM: HCT-15
inactive: COLO 205 > 100 µM | OVCAR-5 > 100 µM | PC-3 > 100 µM | UACC-257 > 100 µM | SW-620 > 100 µM | OVCAR-8 > 100 µM | SF-268 > 100 µM | K562 > 100 µM | NCI/ADR-RES > 100 µM | DU-145 > 100 µM | SK-MEL-28 > 100 µM | 786-0 > 100 µM | SK-MEL-5 > 100 µM | SF-295 > 100 µM

Cc1oc2nc1C(=O)NCc1nc(cs1)C(=O)N[C@H](C(C)C)c1nc(cs1)C(=O)N[C@H]2C
52.8 µM: HCT-15
inactive: COLO 205 75.7 µM | OVCAR-5 > 100 µM | PC-3 40.3 µM | UACC-257 > 100 µM | SW-620 > 100 µM | OVCAR-8 35.2 µM | SF-268 85.5 µM | K562 54.8 µM | NCI/ADR-RES 30.1 µM | DU-145 79.3 µM | M14 > 100 µM | SK-MEL-28 > 100 µM | 786-0 57.4 µM | SK-MEL-5 23.1 µM | SF-295 18.4 µM

COCCCN1C(=O)C2c3[nH]c4ccccc4c3C3CCC(C(C)(C)C)CC3C2C1=O (stereo not drawn)
inactive: COLO 205 > 10 µM | PC-3 19.1 µM | UACC-257 27.7 µM | SW-620 30.6 µM | OVCAR-8 35.5 µM | SF-268 43.7 µM | K562 > 10 µM | NCI/ADR-RES > 10 µM | DU-145 58.9 µM | SR 25.4 µM | M14 18.4 µM | SK-MEL-28 38 µM | 786-0 22.7 µM | SK-MEL-5 27.4 µM | SF-295 24.1 µM
19.8 µM: HCT-15

Cc1cc2[nH]c3c(C#N)c(-c4ccccc4)c(/C=N/c4ccc(F)cc4)c(=O)n3c2cc1C
> 100 µM: HCT-15
inactive: COLO 205 > 100 µM | OVCAR-5 > 100 µM | PC-3 > 100 µM | UACC-257 > 100 µM | SW-620 62.5 µM | OVCAR-8 > 100 µM | SF-268 99.5 µM | NCI/ADR-RES > 100 µM | M14 > 100 µM | SK-MEL-28 > 100 µM | 786-0 > 100 µM | SK-MEL-5 > 100 µM | SK-MEL-2 > 100 µM | SF-295 64.6 µM

CSCCCC(NC(=O)CNC(=O)C1CCCN1C(=O)C(Cc1ccc(O)cc1)NC(=O)C(Cc1ccccc1)NC(=O)C(CCCNC(=N)N)NC(=O)C(CC(=O)O)NC(=O)C1CCCN1C(=O)C(CC(=O)O)NC(=O)C1CCCN1C(=O)C1CCCN1C(=O)CN)C(N)=O (stereo not drawn) (H-GPPDPDRFYPG[X41]-NH2; configuration not given here)
inactive: COLO 205 > 50 µM | OVCAR-5 > 50 µM | PC-3 > 50 µM | UACC-257 > 50 µM | SW-620 > 50 µM | OVCAR-8 > 50 µM | SF-268 > 50 µM | K562 > 50 µM | NCI/ADR-RES > 50 µM | SR > 50 µM | M14 > 50 µM | SK-MEL-28 > 50 µM | 786-0 > 50 µM | SK-MEL-5 > 50 µM | SK-MEL-2 > 50 µM | SF-295 > 50 µM
> 50 µM: HCT-15

NNC(=O)CS(=O)(=O)Nc1ncccn1
inactive: COLO 205 > 100 µM | OVCAR-5 > 100 µM | PC-3 > 100 µM | UACC-257 > 100 µM | SW-620 > 100 µM | OVCAR-8 > 100 µM | SF-268 > 100 µM | K562 > 100 µM | NCI/ADR-RES > 100 µM | DU-145 > 100 µM | M14 > 100 µM | SK-MEL-28 > 100 µM | 786-0 > 100 µM | SK-MEL-5 > 100 µM | SK-MEL-2 > 100 µM | SF-295 > 100 µM
> 100 µM: HCT-15

O=C1c2cn[nH]c2N=C(Nc2ccccc2)C1/N=C/c1ccc([N+](=O)[O-])cc1 (stereo not drawn)
inactive: OVCAR-5 > 10 µM | PC-3 > 10 µM | UACC-257 > 10 µM | OVCAR-8 > 10 µM | SF-268 > 10 µM | K562 > 10 µM | DU-145 > 10 µM | SR > 10 µM | M14 > 10 µM | 786-0 > 10 µM | SK-MEL-5 > 10 µM | SF-295 > 10 µM

CC(C)N1[C@@H]2CCCC[C@H]2N(C(C)C)[PH]1=O
> 100 µM: HCT-15
inactive: COLO 205 > 100 µM | OVCAR-5 > 100 µM | UACC-257 > 100 µM | SW-620 > 100 µM | OVCAR-8 > 100 µM | SF-268 > 100 µM | K562 > 100 µM | NCI/ADR-RES > 100 µM | DU-145 > 100 µM | SR > 100 µM | M14 > 100 µM | 786-0 > 100 µM | SK-MEL-5 > 100 µM | SF-295 > 100 µM

CC1C(c2ccccc2O)c2cc3c(cc2OC1N1CCOCC1)OCO3 (stereo not drawn)
31 µM: HCT-15
inactive: COLO 205 21.2 µM | OVCAR-5 47.5 µM | PC-3 27.1 µM | UACC-257 19.6 µM | SW-620 42.3 µM | OVCAR-8 32.1 µM | SF-268 43 µM | K562 22.1 µM | DU-145 38.5 µM | SR 12.5 µM | M14 35.4 µM | SK-MEL-28 40.6 µM | 786-0 34.7 µM | SK-MEL-5 22.1 µM | SK-MEL-2 29 µM | SF-295 21.7 µM

CC(C)[C@@H]1CC[C@@H](C)C[C@H]1OC(=O)/C=C1\C(C(=O)O[C@@H]2C[C@H](C)CC[C@H]2C(C)C)[C@H]2C=C[C@@H]1O2 (stereo partly drawn)
inactive: COLO 205 64.3 µM | OVCAR-5 > 100 µM | PC-3 37.3 µM | UACC-257 35 µM | SW-620 29.9 µM | OVCAR-8 57.7 µM | SF-268 76.4 µM | K562 33.4 µM | NCI/ADR-RES > 100 µM | DU-145 57.9 µM | SR 43 µM | M14 89.5 µM | SK-MEL-28 > 100 µM | 786-0 66.5 µM | SK-MEL-5 40.4 µM | SF-295 25.2 µM
92.3 µM: HCT-15

CSC(SC)=C1C(=O)N(c2ccccc2)N=C1C
24.1 µM: HCT-15
inactive: COLO 205 19.9 µM | OVCAR-5 29.5 µM | PC-3 28.1 µM | UACC-257 27.4 µM | SW-620 32 µM | OVCAR-8 33.8 µM | SF-268 61.1 µM | K562 27.1 µM | NCI/ADR-RES 31.2 µM | M14 20.6 µM | 786-0 23.2 µM | SK-MEL-5 10.3 µM | SK-MEL-2 20 µM | SF-295 25.9 µM
